We go through nine compounds from patent EP4741379A1, “CLASS OF PROGRAMMED CELL DEATH INHIBITORS, PREPARATION METHOD THEREFOR AND USE THEREOF” (SHANGHAI INSTITUTE OF ORGANIC CHEMISTRY, CHINESE ACADEMY OF …, priority 2023, dated 2025).

Series [1] concerns TNFα-induced systemic inflammatory response syndrome. Kind of series: TNFα-induced systemic inflammatory response syndrome in mice. Type of series: in vivo. The following applies: oral gavage 1 mg/kg, 20 minutes before TNFα tail vein injection. The source says: A biological test protocol was adopted as follows: systemic inflammatory response syndrome (SIRS), also known as an inflammatory storm, refers to a nonspecific systemic inflammatory response caused by severe infections, multiple trauma, burns, ischemia-reperfusion, acute pancreatitis, and other infectious or non-infectious injuries. Under this condition, a large number of inflammatory factors are released, and in severe cases, the body loses control over the inflammatory response, leading to multiple organ failure and even death. Tail vein injection of tumor necrosis factor TNFα can induce systemic inflammatory response syndrome in mice, causing a drop in body temperature and death of mice. Effects of the representative compound QY-18-26 on TNFα-induced systemic inflammatory response syndrome were tested by monitoring changes in body temperature and death in mice. A known RIPK1 inhibitor Nec-1s was used as a control.
Method: The compound to be tested was dissolved in 0.5% carboxymethyl cellulose at the required concentration one day in advance and sonicated overnight. […] Body temperature changes of mice were monitored using an infrared thermometer after injection. Effects of the compound were calculated using Prism GraphPad statistical software.

The nature of series [2]: Pharmacokinetic properties in mice. The format is in vivo. How it is done:
A biological test protocol was adopted to test drug metabolism of the compound in living mice. To verify the pharmacokinetic properties of the compounds of the present disclosure in vivo, the representative compound QY-18-26 was selected. Single administration via oral gavage (PO, 10 mg/kg) or intravenous injection (IV, 1 mg/kg) was used to test the pharmacokinetic properties of the compound in mice (n = 3).

Series [3] relates to L929 cells. Briefly: TNF-induced programmed necrosis of L929 cells (Cell Titer-Glo viability). The format is cell-based, mouse. Particulars: for EC50: Mus musculus. The protocol: (§1) The biological test protocol is adopted to test effects of the compound on TNF-induced programmed necrosis of FADD (Fas-associated death domain)-deficient Jurkat cells and L929 cells.
(§2) Two different stimulation methods were used: treating with tumor necrosis factor (TNFα) alone, or treating with TNFα in combination of mitochondrial-derived cysteine-aspartate activator (SMAC) SM164. Cell viability was determined by measuring chemiluminescence values, thereby assessing the bioactivity of the compounds in inhibiting programmed cell necrosis.
(§3) Method: FADD-deficient Jurkat cells: FADD-deficient Jurkat cells (human peripheral blood leukemia T cell line) were cultured in vitro. After reaching logarithmic growth phase, cells were collected and centrifuged at 1000 rpm for 5 minutes. A supernatant was discarded. A cell concentration was adjusted to 2.5×10^5/mL, and cells were seeded into a 384-well plate at 40 µL per well. In the corresponding wells, 5 µL of SM164 (50 nM) and compounds diluted with cell culture medium were added. After pre-treatment at 37°C for 1 hour, 5 µL of TNFα (50 ng/mL) diluted with cell culture medium was added to each well as a stimulation group, while 5 µL of culture medium was added as a control group. After the plate was incubated in a cell culture incubator (37°C, 5% CO2) for 14 hours, 15 µL of Cell Titer-Glo solution was added to each well. Then, the plate was incubated at room temperature for 30 minutes. Luminescence was measured to assess intracellular ATP levels. Cell viability was set at 100% for unstimulated DMSO control wells. […] The plate was placed in a cell culture incubator (37°C, 5% CO2) and cultured for 12 hours. In the corresponding wells, 5 µL of SM164 (500 nM) and compounds diluted with cell culture medium were added. After pre-treatment at 37°C for 1 hour, 5 µL of TNFα (500 ng/mL) diluted with cell culture medium was added to the wells as a stimulation group, while 5 µL of culture medium was added as a control group. After the plate was incubated in the cell incubator (37°C, 5% CO2) for 14 hours, 15 µL of Cell Titer-Glo solution was added to each well. Then, the plate was incubated at room temperature for 30 minutes, and luminescence was measured to assess intracellular ATP levels. Cell viability was set at 100% for unstimulated DMSO control wells. EC50 values of the compounds were calculated using Prism GraphPad statistical software.

Series [4] deals with T1, RIPK1 (1-330) protein (Homo sapiens, UniProt Q13546).
T1 construct: test effects of the compound QY-18-26 on kinase activity of RIPK1 (1-330) protein
T1 sequence (Q13546 1-330): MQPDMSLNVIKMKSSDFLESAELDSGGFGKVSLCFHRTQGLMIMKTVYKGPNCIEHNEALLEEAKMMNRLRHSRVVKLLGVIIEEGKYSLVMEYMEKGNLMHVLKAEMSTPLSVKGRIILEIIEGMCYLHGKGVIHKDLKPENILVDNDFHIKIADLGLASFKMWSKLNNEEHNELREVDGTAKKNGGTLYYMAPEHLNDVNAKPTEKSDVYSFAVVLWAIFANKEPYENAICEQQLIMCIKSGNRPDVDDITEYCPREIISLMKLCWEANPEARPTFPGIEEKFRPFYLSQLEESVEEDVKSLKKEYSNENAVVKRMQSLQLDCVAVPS
Briefly: RIPK1 kinase activity (ADP-Glo). Particulars: RIPK1 (1-330) 2 µM, 37°C, 2 hours; read-out: effective half-maximal inhibitory concentration. The format is biochemical. How it is done:
A known clinical RIPK1 inhibitor SAR443122 was used as a control.
Method: Into a 384-well plate, RIPK1 (1-330) protein with a final concentration of 2 µM and ATP with a corresponding concentration (in 1X kinase buffer) with a final concentration of 5 µL were added. At least 3 replicates were set for each group and reacted at 37°C for 2 hours. 5 µL of ADP-Glo reagent was added to stop the kinase reaction and remove any remaining ATP in the reaction system. The plate was incubated at room temperature for 40 minutes, added with 10 µL of Kinase Detection Reagent, which was used to convert ADP to ATP and introduce luciferase and luciferin to detect ATP in the system, and reacted at room temperature for 1 hour. Luminescence was measured using a 7500 Fast Real-Time PCR System. IC50 values of compounds in inhibiting the kinase reaction were calculated using Prism GraphPad statistical software.

Series [5] in a line: Brain penetration (brain/plasma drug concentrations) in rats. Type of series: in vivo. The protocol:
(§4) A biological test protocol was adopted to test brain/plasma drug concentrations of the compound in living mice and rats. To verify the brain penetration properties of the compounds of the present disclosure in vivo, a representative compound QY-18-26 was selected. Single administration via oral gavage (PO, 10 mg/kg) or intravenous injection (IV, 2 mg/kg) was used to test brain/plasma drug concentrations of the compound in mice (n = 3) at different time points. At the same time, single administration via oral gavage (PO, 5 mg/kg) was used to test brain/plasma drug concentrations in rats (n = 3) at different time points.

Series [6] can be described thus: Brain penetration (brain/plasma drug concentrations) in mice. The format is in vivo. How it is done:
as §4

For series [7], the system named is FADD-deficient Jurkat cells. Kind of series: TNF-induced programmed necrosis of FADD-deficient Jurkat cells (Cell Titer-Glo viability). Type of series: cell-based, human. The following applies: for EC50: Homo sapiens, Jurkat; for programmed necroptosis inhibitory activity compared to SAR443122: TNFα alone or TNFα + SM164, human derived FADD-deficient Jurkat cells. The protocol:
as §1, §2, §3
In general terms: Cellular ATP, detected with luciferase, serves as a proxy for viable cell number.

The target of series [8] is T2, mouse derived RIPK1 (Mus musculus, UniProt Q60855).
T2 sequence (Q60855 1-656): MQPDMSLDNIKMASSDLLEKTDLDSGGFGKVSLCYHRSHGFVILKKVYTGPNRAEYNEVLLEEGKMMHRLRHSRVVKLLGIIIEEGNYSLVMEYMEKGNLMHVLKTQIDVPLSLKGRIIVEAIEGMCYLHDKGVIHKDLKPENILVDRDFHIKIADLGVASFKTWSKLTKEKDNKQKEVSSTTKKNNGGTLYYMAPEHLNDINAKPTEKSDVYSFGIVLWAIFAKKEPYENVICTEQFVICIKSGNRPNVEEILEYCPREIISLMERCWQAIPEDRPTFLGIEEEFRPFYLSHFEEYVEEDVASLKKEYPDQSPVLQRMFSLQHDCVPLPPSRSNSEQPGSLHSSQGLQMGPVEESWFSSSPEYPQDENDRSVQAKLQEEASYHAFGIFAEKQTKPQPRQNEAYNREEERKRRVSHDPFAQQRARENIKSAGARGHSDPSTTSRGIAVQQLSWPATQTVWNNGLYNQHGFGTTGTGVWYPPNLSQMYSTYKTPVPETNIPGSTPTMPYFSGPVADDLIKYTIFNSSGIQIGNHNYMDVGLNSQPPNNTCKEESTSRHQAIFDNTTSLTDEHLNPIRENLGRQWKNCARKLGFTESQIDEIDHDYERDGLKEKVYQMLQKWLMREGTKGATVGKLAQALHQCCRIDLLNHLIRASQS
Briefly: Inhibitory activity against mouse derived RIPK1 (statement only). Particulars: in words.

Where [9] appears, read: single dose, PO 10 mg/kg or IV 1 mg/kg.
[10] abbreviates: L929, stimulation with TNFα + SM164, read-out: EC50 (nM) L929 cells (mouse-derived) TNFα+ SM164.
[11] abbreviates: L929, stimulation with TNFα alone, read-out: EC50 (nM) L929 cells (mouse-derived) TNFα.
Where [12] appears, read: stimulation with TNFα + SM164, read-out: EC50 (nM) FADD^-/- Jurkat cells (human-derived) TNFα+ SM164.
Where [13] appears, read: stimulation with TNFα alone, read-out: EC50 (nM) FADD^-/- Jurkat cells (human-derived) TNFα.

The structures appear in SMILES notation. Where two headings read alike, the source gives them in different places.

Take `C[C@H](NC(=O)c1nnn(C)c1Cc1ccccc1)c1ccc(C#Cc2ccccn2)cc1` [QY-18-26, (S)-5-benzyl-1-methyl-N-(1-(4-(pyridin-2-ylethynyl)phenyl)ethyl)-1H-1,2,3-triazole-4-formamide]: the “effect on TNFα-induced body temperature drop, inflammatory response, and death” value in series [1] is reported as “effectively counteract”. For the same compound, the plasma concentration in series [2] (oral gavage 10 mg/kg, for most of the 24-hour period) is listed as > 5 ng/mL. Besides, the “bioavailability (F)” value in series [2] (setting [9]) was “very high”. For the same compound, the “exposure (AUC)” value in series [2] (setting [9]) is on record as “very high”. For the same compound, the “maximum plasma concentration (Cmax)” value in series [2] (setting [9]) is on record as “very high”. For the same compound, the “time to peak concentration” value in series [2] (setting [9]) is recorded as “rapidly reached a peak concentration”. The EC50 in series [3] (setting [10]), in series [3] (setting [11]), in series [7] (setting [12]) and in series [7] (setting [13]) was < 0.01 nM throughout. For the same compound, in series [4], the IC50 is 6.4 nM. The brain-plasma distribution entry in series [5] (at 4 hours) and in series [6] (at 4 hours) was “remained stable” in each case. In addition, the Kp in series [5] (rat, brain, single dose PO 5 mg/kg, read-out: concentration in the brain as share of the concentration in plasma) was ~0.4; in series [6] (mouse, brain, single dose PO 10 mg/kg or IV 2 mg/kg, read-out: concentration in the brain as share of the concentration in plasma), ~0.4. The brain drug concentration in series [5] (single dose PO 5 mg/kg) and in series [6] (single dose PO 10 mg/kg or IV 2 mg/kg) was > 5 ng/g in each case. Further, the “programmed necroptosis inhibitory activity compared to SAR443122” value in series [7] is given as “stronger”.

Consider `C[C@H](NC(=O)c1nnn(C)c1Cc1ccccc1)c1ccc(C#CC2CCOCC2)cc1` [QY-18-44], for which the EC50 in series [3] (setting [10]) came to 0.3 nM; in series [3] (setting [11]) it was 0.2 nM; in series [7] (setting [12]) it was 0.3 nM; in series [7] (setting [13]), 0.04 nM.

On to `C[C@H](NC(=O)c1nnn(C)c1Cc1ccccc1)c1ccc(C#CC2CC2)cc1` [QY-18-47], for which the EC50 in series [3] (setting [10]) was 73 nM; in series [3] (setting [11]), 1 nM; in series [7] (setting [12]) it was 61 nM; in series [7] (setting [13]), 0.7 nM.

As to `C[C@H](NC(=O)c1nnn(C)c1Cc1ccccc1)c1ccc(C#Cc2cnoc2)cc1` [QY-18-77], the EC50 in series [3] (setting [11]) came out at 733 nM; in series [7] (setting [12]) it was 32 nM; in series [7] (setting [13]) it was 0.3 nM.

Regarding `C[C@H](NC(=O)c1cnn(C)c1Cc1ccccc1)c1ccc(C#Cc2ccccn2)cc1` [QY-20-2], the EC50 in series [3] (setting [10]) is 0.5 nM; in series [3] (setting [11]), 0.1 nM; in series [7] (setting [12]), 0.3 nM; in series [7] (setting [13]) it was 0.03 nM.

`C[C@H](NC(=O)c1nnn(C)c1Cc1ccc(F)cc1)c1ccc(C#Cc2ccccn2)cc1` [QY-20-53]: the EC50 is 0.1 nM in series [3] (setting [10]), 0.03 nM in series [3] (setting [11]), 0.05 nM in series [7] (setting [12]) and < 0.01 nM in series [7] (setting [13]). Further, in series [7], the “programmed necroptosis inhibitory activity compared to SAR443122” value is reported as “stronger”.

With `C[C@H](NC(=O)c1nnn(C)c1Cc1cccc(F)c1)c1ccc(C#Cc2ccccn2)cc1` [QY-20-54], the EC50 in series [3] (setting [10]) was 0.3 nM; in series [3] (setting [11]) it was 0.05 nM; in series [7] (setting [12]), < 0.01 nM; in series [7] (setting [13]), < 0.01 nM. In addition, in series [7], the “programmed necroptosis inhibitory activity compared to SAR443122” value is given as “stronger”.

As for `C[C@H](NC(=O)c1nnn(C)c1Cc1ccccc1)c1ccc(C#Cc2cncn2C)cc1` [QY-20-55], the EC50 amounted to 23 nM in series [3] (setting [10]), 2.2 nM in series [3] (setting [11]), 1.4 nM in series [7] (setting [12]) and 0.1 nM in series [7] (setting [13]).

In the case of `CN1C(=O)[C@@H](NC(=O)c2nnc(Cc3ccccc3)[nH]2)COc2cccnc21` [SAR443122, reference compound], the EC50 in series [3] (L929, read-out: EC50 (nM) L929 cells (mouse-derived) TNFα) was > 1000 nM; in series [7] (read-out: EC50 (nM) FADD^-/- Jurkat cells (human-derived) TNFα), 0.9 nM. Also, in series [3] (in words), the “programmed necroptosis inhibitory activity on mouse derived L929 cells” value is “nearly inactive”. For the same compound, in series [8], the “inhibitory activity against mouse derived RIPK1” value was “very poor inhibitory activity”.
